Results as given in ChEMBL document CHEMBL1135123, “Discovery of L-791,943: a potent, selective, non emetic and orally active phosphodiesterase-4 inhibitor” (Bioorg Med Chem Lett, 2002).

Experiments:
[1] = biological target: T1, 3',5'-cyclic-AMP phosphodiesterase 4A (Homo sapiens, UniProt P27815); assay: Inhibitory concentration against human PDE4A isoform using a construct representing the common region of spliced variants expressed as GST-fusion protein in Sf9 cells
Target sequence in this assay (P27815 whole entry, looked up, stated change not applied, the tested form may be a part, canonical isoform): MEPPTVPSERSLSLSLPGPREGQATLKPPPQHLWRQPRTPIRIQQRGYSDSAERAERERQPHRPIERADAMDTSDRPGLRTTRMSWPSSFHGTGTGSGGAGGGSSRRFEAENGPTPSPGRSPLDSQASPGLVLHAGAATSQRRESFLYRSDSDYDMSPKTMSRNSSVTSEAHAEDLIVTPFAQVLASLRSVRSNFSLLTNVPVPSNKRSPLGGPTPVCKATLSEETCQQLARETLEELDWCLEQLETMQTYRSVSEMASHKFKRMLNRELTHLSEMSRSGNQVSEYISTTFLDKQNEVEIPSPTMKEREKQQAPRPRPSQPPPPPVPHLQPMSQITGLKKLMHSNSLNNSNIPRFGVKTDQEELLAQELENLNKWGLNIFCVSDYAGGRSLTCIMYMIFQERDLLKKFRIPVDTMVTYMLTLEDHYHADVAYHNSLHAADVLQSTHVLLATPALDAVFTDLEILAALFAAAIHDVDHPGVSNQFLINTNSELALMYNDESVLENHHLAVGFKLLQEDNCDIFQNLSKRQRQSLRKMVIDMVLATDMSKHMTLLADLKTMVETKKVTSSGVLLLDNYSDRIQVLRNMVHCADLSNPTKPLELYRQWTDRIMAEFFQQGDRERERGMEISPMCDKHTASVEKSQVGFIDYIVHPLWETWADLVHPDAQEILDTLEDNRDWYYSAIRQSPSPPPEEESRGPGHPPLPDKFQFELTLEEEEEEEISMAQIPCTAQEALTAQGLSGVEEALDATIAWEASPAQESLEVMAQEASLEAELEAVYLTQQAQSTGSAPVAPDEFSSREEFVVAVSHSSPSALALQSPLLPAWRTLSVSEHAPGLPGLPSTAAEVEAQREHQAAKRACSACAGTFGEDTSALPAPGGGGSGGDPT

[2] = biological target: T1, 3',5'-cyclic-AMP phosphodiesterase 4A; assay: Inhibitory concentration of compound against LPS- induced TNF-alpha production in whole human blood assay; type: functional, tissue-based
Target sequence in this assay (P27815 whole entry, the tested form may be a part, canonical isoform): as the sequence (P27815 whole entry, looked up, stated change not applied, the tested form may be a part, canonical isoform) above

[3] = Half-life period was determined; type: ADME
[4] = Bioavailability; type: ADME, organism-based; settings: eutheria, in vivo
[5] = Half life of compound was determined in squirrel monkey; type: ADME; settings: in vivo
Cavia porcellus = assay: Ovalbumin induced bronchoconstriction in conscious guinea pig pretreated with 1 mg/kg intraperitoneal dose for 4 hr; type: functional
[6] = Ascaris-induced bronchoconstriction in anesthetized squirrel monkey pretreated with 3 mg/kg peroral dose for 4 hr; type: functional; settings: route oral
[7] = Half life of compound was determined in rat; type: ADME, organism-based; settings: in vivo
Mustela putorius furo = species: Mustela putorius furo; assay: Emetic effect in ferrets; type: functional
Ovis aries [8] = assay: Ascaris-induced early phase bronchoconstriction in conscious sheep administered intravenously at 2 mg/kg; type: functional; settings: route intravenous
Ovis aries [9] = assay: Ascaris-induced late phase bronchoconstriction in conscious sheep administered intravenously at 2 mg/kg; type: functional; settings: route intravenous
[10] = Ascaris-induced bronchoconstriction in anesthetized squirrel monkey pretreated with 5 mg/kg intravenously for 30 min; type: functional; settings: route intravenous

| IC50 [1] [nM] | IC50 [2] [nM] | Structure (SMILES) | further results |
| --- | --- | --- | --- |
| 16 | 1700 | [O-][n+]1ccc(CC(c2ccc(C3(O)CC3)cc2)c2ccc(OC(F)F)c(OC(F)F)c2)cc1 (stereo not given) | – |
| 8.6 | 1000 | CN(C)C(=O)c1ccc(C(Cc2cc[n+]([O-])cc2)c2ccc(OC(F)F)c(OC(F)F)c2)cc1 (stereo not given) | – |
| 13 | 8700 | FC(F)Oc1ccc(C(Cc2ccncc2)c2ccc(Cl)cc2)cc1OC1CCCC1 (stereo not given) | – |
| 7.3 | 890 | Cc1ccc(C(=O)c2ccc(C(Cc3cc[n+]([O-])cc3)c3ccc(OC(F)F)c(OC(F)F)c3)cc2)nc1 (stereo not given) | – |
| 7.5 | 380 | [O-][n+]1ccc(CC(c2ccc(C3(O)CCC3)cc2)c2ccc(OC(F)F)c(OC(F)F)c2)cc1 (stereo not given) | half-life [3]: 2 h; bioavailability [4]: 100% |
| 45 | 510 | CC(O)c1ccc(C(Cc2cc[n+]([O-])cc2)c2ccc(OC(F)F)c(OC(F)F)c2)cc1 (stereo not given) | – |
| 44 | 470 | [O-][n+]1ccc(CC(c2ccc(CO)cc2)c2ccc(OC(F)F)c(OC(F)F)c2)cc1 (stereo not given) | – |
| 2.8 | 12000 | COc1ccc(C(Cc2ccncc2)c2ccc(Cl)cc2)cc1OC1CCCC1 (stereo not given) | – |
| 24 | 77000 | O=C(O)c1ccc(C(Cc2cc[n+]([O-])cc2)c2ccc(OC(F)F)c(OC(F)F)c2)cc1 (stereo not given) | – |
| 4.2 | 670 | [O-][n+]1ccc(CC(c2ccc(C(O)(C(F)(F)F)C(F)(F)F)cc2)c2ccc(OC(F)F)c(OC(F)F)c2)cc1 (stereo not given) | half-life [5]: 48 h; Efficacy (Cavia porcellus): 58%; Efficacy [6]: 96%; half-life [7]: > 24 h; Dose (Mustela putorius furo): >3 mg/kg; Efficacy (Ovis aries [8]): 85%; Efficacy (Ovis aries [9]): 95% |
| 3.1 | 75000 | Cc1ccccc1C(=O)NS(=O)(=O)c1ccc(C(Cc2cc[n+]([O-])cc2)c2ccc(OC(F)F)c(OC(F)F)c2)cc1 (stereo not given) | – |
| 4.6 | 410 | CCNC(=O)OCc1ccc(C(Cc2cc[n+]([O-])cc2)c2ccc(OC(F)F)c(OC(F)F)c2)cc1 (stereo not given) | – |
| 0.5 | 1900 | [O-][n+]1ccc(CC(c2ccc(COc3ccc(F)cc3)cc2)c2ccc(OC(F)F)c(OC(F)F)c2)cc1 (stereo not given) | – |
| 772 | – | Clc1ccc(C(Cc2ccncc2)c2ccc3c(c2)OCCO3)cc1 (stereo not given) | – |
| 110 | 98000 | COc1ccc(C(Cc2ccncc2)c2ccc(Cl)cc2)c(F)c1OC1CCCC1 (stereo not given) | – |
| 9.6 | 360 | CC(C)(O)c1ccc(C(Cc2cc[n+]([O-])cc2)c2ccc(OC(F)F)c(OC(F)F)c2)cc1 (stereo not given) | half-life [3]: 1 h; bioavailability [4]: 55% |
| > 1000 | – | Clc1ccc(C(Cc2ccncc2)c2ccc3c(c2)OCO3)cc1 (stereo not given) | – |
| 4.3 | 16000 | COc1ccc([C@H](Cc2ccncc2)c2ccccc2)cc1OC1CCCC1 [CDP840] | half-life [5]: < 1 h; Efficacy [10]: 64%; half-life [7]: < 0.5 h; Dose (Mustela putorius furo): 30 mg/kg |
| 53 | 58000 | O=C(O)Cc1ccc(C(Cc2cc[n+]([O-])cc2)c2ccc(OC(F)F)c(OC(F)F)c2)cc1 (stereo not given) | – |
| 11 | 4500 | FC(F)Oc1ccc(C(Cc2ccncc2)c2ccc(Cl)cc2)cc1OC(F)F (stereo not given) | – |
| 2.2 | 6500 | CC(C)(C(=O)O)c1cccc(-c2ccc(C(Cc3cc[n+]([O-])cc3)c3ccc(OC(F)F)c(OC(F)F)c3)cc2)c1 (stereo not given) | – |
